# Source: patent US8283377B2, “Method for inhibiting blood vessel stenosis” (China Medical University, priority 2011, dated 2012)
# “And” between values parts separate entries of the source, which are not always exact repeats. Equal entries are not always repeated. Marks after values point to notes of the source that are not given here.
# Experiments:
# [1] = test system: rat aortic smooth muscle cell line A7r5; assay: Inhibiting proliferation of smooth muscle cells - cell cycle analysis (propidium iodide flow cytometry); type: cell-based; settings: 24 hours
# Experimental: (§1) A rat aortic smooth muscle cell line A7r5 was used to carry out the present experiment. A Dulbecco's modified Eagle's medium (DMEM, purchased from Biowest) was used as a general culture medium. The medium was added with 4 mM of L-glutamine, 1.5 g/L sodium bicarbonate, 4.5 g/L glucose, and 10 wt % fetal bovine serum. The A7r5 smooth muscle cells were cultured in a 75 cm^2 petri dish, and 12 mL of the culture medium was added thereinto. The cells were placed and incubated in a cell incubator containing 5 vol % of carbon dioxide at 37° C. After the dish was fully covered by the grown cells, the medium was replaced once every 3 days, and 0.5 wt % trypsin was used for subculture.
# (§2) In addition, a culture medium containing n-butylidenephthalide was prepared. Herein, n-butylidenephthalide was dissolved in dimethyl sulfoxide (purchased from Sigma), and solutions with n-butylidenephthalide concentrations of 0, 25, 50, 100, 150, and 200 mg/mL were prepared, and the solutions were stored at −20° C. When used to prepare a medium, the solutions were diluted by 1000 times with the general culture medium used for incubating smooth muscle cells to prepare a culture medium containing 0, 25, 50, 100, 150, or 200 μg/mL of n-butylidenephthalide.
# An inhibition test on the cell cycle progression of smooth muscle cells was carried out. Because the cellular DNA content is different in each cell cycle phase, the amount of DNA can be used to evaluate the cell cycle phase in which the cell proceeds. In another aspect, because propidium iodide can bind to DNA, and it can emit red fluorescent light with a wavelength of 625 nm after being excited by light with a wavelength of 488 nm, thus, propidium iodide was used as a fluorescent staining agent in the present experiment, and the red fluorescent intensity represented the amount of DNA, thereby determining which phase the cell was in during the cell cycle.
# The rat aortic smooth muscle cell line A7r5 was inoculated in a 6-hole culture dish (density: 1×10^5 cells/hole). After the cells were cultured for 24 hours, the medium was replaced by a medium containing n-butylidenephthalide with a concentration of 0, 25, or 50 μg/mL to culture the smooth muscle cells. After another 24 hours, the cells were fixed with 70 vol % alcohol, and a phosphate buffer solution (PBS) was used to rinse the cells. Finally, propidium iodide (a solution containing 955 μL 1×PBS, 5 μL Triton X-100 (0.5 wt %, purchased from Sigma), 20 μL RNase A (10 mg/mL, purchased from Sigma), and 20 μL propidium iodide (1 mg/mL, purchased from Sigma)) was used to stain the cells for 15 minutes. Then, a flow cytometry (FC500, Beckman) was used to scan and collect 10,000 cells. Multicycle for Windows software (Phoenix Flow Systems) was used to analyze cellular cell cycle.
# [2] = test system: carotid artery of Sprague-Dawley (SD) rats after balloon catheter injury; assay: Animal test - treatment of carotid artery injury induced blood vessel stenosis; type: in vivo, rat; settings: for Blood vessel neointimal layer area /middle layer area (intima/media ratio) / Blood vessel neointimal layer area: day 14
# Experimental: Sprague-Dawley (SD) rats (purchased from BioLasco Taiwan Co. Ltd, Taipei) were used in the present experiment to carry out the animal test. The rats were bred in an environment with 12 hours light, followed by 12 hours dark, and fed to 10-weeks old (body weight: about 300 to 400 g). Then, carotid artery injury surgery and the following experiments were carried out. The present experiment followed the Animal Protection Act and the provisions of Animal Management Committee of National Dong Hwa University.
# The SD rat was anesthetized by 320 mg/kg-body-weight chloral hydrate (purchased from Fluka), and then the abdominal area was faced upwards, and the limbs were fixed with a breathable tape on a surgery plate. The Casscells' method (Casscells et al., Migration of smooth muscle and endothelial cells. Critical events in restenosis, Circulation, 1992; 86; 723-729, which is incorporated hereinto by reference) was used to carry out the carotid artery injury surgery. First, the skin of the rat was cut open with a scissor from the midline of the neck jaw to the chest area, and then the connective tissue at the right side of the rat neck was separated from the muscle layer to expose the blood vessel next to the trachea, and the blood vessel is the common carotid artery. The right side common carotid artery, internal carotid artery, and external carotid artery were separated, and the connective tissue at the junction of these three blood vessels was completely striped. Then, the external carotid artery was tied up with a 2/0 sized silk thread, and the common carotid artery was clipped by a vascular clip to avoid heavy bleeding. A gap was made by cutting the external carotid artery with a microscopic scissor, and a balloon catheter (Cather French Size 2F, purchased from Edwards Lifescience) was implanted through the gap. The balloon catheter was inserted 5 cm into the common carotid artery, and 0.2 mL of a physiological saline solution was filled into the balloon catheter to expend the catheter. Then, the balloon catheter was pulled out to the gap of the external carotid artery, and the physiological saline solution was drawn out from the balloon catheter. After the common carotid artery was injured repeatedly for three times by this method, the gap of the external carotid artery and the bifurcation point between the external carotid artery and the common carotid artery were tied up with a 2/0 sized silk thread. Finally, the wound of the rat was stitched up and spread with an iodine solution. After the rat woke up, the carotid artery injury surgery was completed.
# Two weeks after the carotid artery injury surgery, the rat was sacrificed with excess chloral hydrate (640 mg/kg-body weight). PBS (300 mL) was injected into the left ventricle of the rat using the heart perfusion method and flowed out from the right ventricle through systemic circulation. Neutral formalin (200 mL, 10 vol %) was injected into the left ventricle of the rat to immobilize the whole body tissue. The common carotid artery immobilized by formalin was removed and soaked in a 10 vol % neutral formalin solution.
# The common carotid artery was divided into four sections and labeled with A, B, C, and D from the head to the heart. Each section was 4 mm in length and was placed in an embedding cassette, and then an automatic tissue processor (purchased from Sakura) was used to process the tissue. The process procedure was 1 hour in a 10 vol % formalin solution, 30 minutes in water, 1 hour in 80 vol % alcohol, 3 hours in 95 vol % alcohol, 4 hours in 100 vol % alcohol, 3 hours in xylene, and 3 hours in paraffin. After the tissue process procedure was completed, the tissue was wrapped by paraffin, and the tissue biopsy was carried out by a slicer (purchased from Lica) with a cut of 8 μm thickness. Immunohistochemical stain and H&E stain on the biopsy were carried out. […]
# [3] = test system: rat aortic smooth muscle cell line A7r5; assay: Inhibiting proliferation of smooth muscle cells - cell counting analysis (trypan blue); type: cell-based; settings: 48 hours
# Experimental: as §1, §2
# The rat aortic smooth muscle cell line A7r5 was inoculated in a 6-hole culture dish (density: 1×10^5 cells/hole). After the cells were cultured for 24 hours, the medium was replaced by a medium containing n-butylidenephthalide with a concentration of 0, 25, 50, 100, 150, or 200 μg/mL to culture the smooth muscle cells. After another 48 hours, the cells were observed by an inverted microscope, and the cells were detached by 0.5 wt % trypsin. Then, 20 μL of the cell suspension was taken and mixed evenly with 20 μL trypan blue, and finally, 10 μL of the mixture was collected and added onto a blood cell counting plate. The cell number was counted by a microscope under 100× magnifications to evaluate the inhibition of n-butylidenephthalide on the growth of the smooth muscle cells.
smiles,measurement,setting,value
CCC/C=C1\OC(=O)c2ccccc21 [n-butylidenephthalide],effect on cell cycle of smooth muscle cells (in words),[1]; 25 and 50 μg/mL,stagnate the smooth muscle cells in the G0/G1 phase
same,Ratio of cells in cell cycle phase G0/G1,[1]; 25 μg/mL,68.33 +/− 0.05%
same,Ratio of cells in cell cycle phase G0/G1,[1]; 50 μg/mL,68.9% and 68.86 +/− 5.2%
same,Ratio of cells in cell cycle phase G2/M,[1]; 25 μg/mL,11.3 +/− 1.25%
same,Ratio of cells in cell cycle phase G2/M,[1]; 50 μg/mL,12.1 +/− 1.15%
same,Ratio of cells in cell cycle phase S,[1]; 25 μg/mL,20.33 +/− 2.05%
same,Ratio of cells in cell cycle phase S,[1]; 50 μg/mL,19.0% and 19.00 +/− 4.3%
same,inhibition of blood vessel stenosis (in words),[2]; 60 mg/kg-body weight,no significant inhibition effect
same,proportion of the rats whose increased area of the blood vessel neointimal layer was under 1×10^5 μm^2,[2]; 60 mg/kg-body weight,0%
same,Blood vessel neointimal layer area /middle layer area (intima/media ratio),[2]; 60 mg/kg-body weight,1.3 +/− 0.3
same,"number of rats with increased neointimal area 0~50,000 μm^2","[2]; 60 mg/kg-body weight, n = 6",0
same,"number of rats with increased neointimal area 50,000~100,000 μm^2","[2]; 60 mg/kg-body weight, n = 6",0
same,"number of rats with increased neointimal area 100,000~150,000 μm^2","[2]; 60 mg/kg-body weight, n = 6",4
same,"number of rats with increased neointimal area Above 150,000 μm^2","[2]; 60 mg/kg-body weight, n = 6",2
same,"proportion of rats with increased neointimal area 100,000~150,000 μm^2","[2]; 60 mg/kg-body weight, n = 6",66.7%
same,"proportion of rats with increased neointimal area Above 150,000 μm^2","[2]; 60 mg/kg-body weight, n = 6",33.3%
same,inhibition of blood vessel stenosis (in words),[2]; 150 mg/kg-body weight,significantly be inhibited
same,inhibition of blood vessel stenosis compared with the sham group (intima/media ratio),[2]; 150 mg/kg-body weight,36.7%
same,inhibition of blood vessel stenosis compared with the sham group (neointimal layer area),[2]; 150 mg/kg-body weight,36.3%
same,proportion of the rats whose increased area of the blood vessel neointimal layer was under 1×10^5 μm^2,[2]; 150 mg/kg-body weight,50%
same,Blood vessel neointimal layer area /middle layer area (intima/media ratio),"[2]; 150 mg/kg-body weight, P < 0.05",0.81 +/− 0.14*
same,"number of rats with increased neointimal area 0~50,000 μm^2","[2]; 150 mg/kg-body weight, n = 6",0
same,"number of rats with increased neointimal area 50,000~100,000 μm^2","[2]; 150 mg/kg-body weight, n = 6",3
same,"number of rats with increased neointimal area 100,000~150,000 μm^2","[2]; 150 mg/kg-body weight, n = 6",3
same,"number of rats with increased neointimal area Above 150,000 μm^2","[2]; 150 mg/kg-body weight, n = 6",0
same,"proportion of rats with increased neointimal area 50,000~100,000 μm^2","[2]; 150 mg/kg-body weight, n = 6",50%
same,"proportion of rats with increased neointimal area 100,000~150,000 μm^2","[2]; 150 mg/kg-body weight, n = 6",50%
same,inhibition of blood vessel stenosis (in words),[2]; 300 mg/kg-body weight,significantly be inhibited
same,inhibition of blood vessel stenosis compared with the sham group (intima/media ratio),[2]; 300 mg/kg-body weight,57.8%
same,inhibition of blood vessel stenosis compared with the sham group (neointimal layer area),[2]; 300 mg/kg-body weight,56.2%
same,proportion of the rats whose increased area of the blood vessel neointimal layer was under 1×10^5 μm^2,[2]; 300 mg/kg-body weight,83.3%
same,Blood vessel neointimal layer area /middle layer area (intima/media ratio),"[2]; 300 mg/kg-body weight, P < 0.01",0.54 +/− 0.24**
same,"number of rats with increased neointimal area 0~50,000 μm^2","[2]; 300 mg/kg-body weight, n = 6",2
same,"number of rats with increased neointimal area 50,000~100,000 μm^2","[2]; 300 mg/kg-body weight, n = 6",3
same,"number of rats with increased neointimal area 100,000~150,000 μm^2","[2]; 300 mg/kg-body weight, n = 6",1
same,"number of rats with increased neointimal area Above 150,000 μm^2","[2]; 300 mg/kg-body weight, n = 6",0
same,"proportion of rats with increased neointimal area 0~50,000 μm^2","[2]; 300 mg/kg-body weight, n = 6",33.3%
same,"proportion of rats with increased neointimal area 50,000~100,000 μm^2","[2]; 300 mg/kg-body weight, n = 6",50.0%
same,"proportion of rats with increased neointimal area 100,000~150,000 μm^2","[2]; 300 mg/kg-body weight, n = 6",16.7%
same,Blood vessel neointimal layer area,"[2]; carotid artery Section A, 60 mg/kg-body weight abdominal injection, days 1,3,5,7,9,11",164528 +/− 81467 μm^2
same,Blood vessel neointimal layer area,"[2]; carotid artery Section A, 150 mg/kg-body weight abdominal injection",75272 +/− 36346 μm^2
same,Blood vessel neointimal layer area,"[2]; carotid artery Section A, 300 mg/kg-body weight abdominal injection",53118 +/− 33403 μm^2
same,Blood vessel neointimal layer area,"[2]; carotid artery Section B, 60 mg/kg-body weight abdominal injection",168355 +/− 37686 μm^2
same,Blood vessel neointimal layer area,"[2]; carotid artery Section B, 150 mg/kg-body weight abdominal injection",119827 +/− 35005 μm^2
same,Blood vessel neointimal layer area,"[2]; carotid artery Section B, 300 mg/kg-body weight abdominal injection",76551 +/− 45327 μm^2
same,Blood vessel neointimal layer area,"[2]; carotid artery Section C, 60 mg/kg-body weight abdominal injection",138260 +/− 36681 μm^2
same,Blood vessel neointimal layer area,"[2]; carotid artery Section C, 150 mg/kg-body weight abdominal injection",93111 +/− 19875 μm^2
same,Blood vessel neointimal layer area,"[2]; carotid artery Section C, 300 mg/kg-body weight abdominal injection",61150 +/− 27899 μm^2
same,Blood vessel neointimal layer area,"[2]; carotid artery Section D, 60 mg/kg-body weight abdominal injection",130852 +/− 77915 μm^2
same,Blood vessel neointimal layer area,"[2]; carotid artery Section D, 150 mg/kg-body weight abdominal injection",85273 +/− 15262 μm^2
same,Blood vessel neointimal layer area,"[2]; carotid artery Section D, 300 mg/kg-body weight abdominal injection",66654 +/− 23434 μm^2
same,Blood vessel neointimal layer area,"[2]; whole carotid artery (Table 4), 60 mg/kg-body weight",150499 +/− 34951 μm^2
same,Blood vessel neointimal layer area,"[2]; whole carotid artery (Table 4), 150 mg/kg-body weight, P < 0.01",93371 +/− 14693 ** μm^2
same,Blood vessel neointimal layer area,"[2]; whole carotid artery (Table 4), 300 mg/kg-body weight, P < 0.01",64368 +/− 20641 ** μm^2
same,Growth rate,[3]; 25 μg/mL,0.56 +/− 0.06%
same,Growth rate,[3]; 50 μg/mL,0.32 +/− 0.04%
same,Growth rate,[3]; 100 μg/mL,0.25 +/− 0.03%
same,Growth rate,[3]; 150 μg/mL,0.12 +/− 0.04%
same,Growth rate,[3]; 200 μg/mL,0.10 +/− 0.02%
same,inhibition at 25 µg/mL,"[3]; Rattus norvegicus, 25 μg/mL, read-out: inhibition rate of smooth muscle cell growth",43.6%
same,IC50,"[3]; Rattus norvegicus, read-out: IC50 of smooth muscle cell growth",27 µg/mL and 143 µM
